Converted amounts (≈) assume the structure as drawn. “And” between values parts separate entries of the source, which are not always exact repeats. Identical values can stand only once.
Tests used:
E. coli (ATCC 35218) [1] = assay: MIC80 by broth microdilution; assay type: cell-based, Escherichia coli; conditions: for MIC80 E. coli (ATCC35218): ≥80% growth inhibition, 16–24 h, CAMHB
S. aureus (ATCC 29213) = assay: MIC80 by broth microdilution; assay type: cell-based, Staphylococcus aureus
[2] = test system: S. aureus Newman, G01, and F4; assay: MIC80 of S. aureus Newman, G01 and F4
cupin domain of CapF = conditions: isothermal titration calorimetry; cited from earlier work
E. coli (ATCC 35218) [3] = assay: time-killing curve; assay type: cell-based, Escherichia coli; conditions: 16× MIC80, within 6 h
Cryptococcus neoformans = conditions: ref 15 and unpublished data; cited from earlier work

SMILES: O=c1cccccc1SSc1cccccc1=O [Compound 685]
- MIC80 E. coli (ATCC35218) (E. coli (ATCC 35218) [1]): < 20 µM

SMILES: O=C(Sc1cccccc1=O)c1ccccc1C(F)(F)F [Compound 677]
- MIC80 E. coli (ATCC35218) (E. coli (ATCC 35218) [1]): < 20 µM

SMILES: O=C(Sc1cccccc1=O)c1ccccc1 [Compound 364]
- MIC80 S. aureus (ATCC29213) (S. aureus (ATCC 29213); ≥80% growth inhibition, 16–24 h, CAMHB): < 20 µM
- MIC80 E. coli (ATCC35218) (E. coli (ATCC 35218) [1]): < 30 µM

SMILES: CC[C@H](C)[C@H](NC(=O)OCC1c2ccccc2-c2ccccc21)C(=O)Sc1cccccc1=O [Compound 686]
- activity against E. coli, in words (E. coli (ATCC 35218) [1]): inactive

SMILES: C=C(C)c1ccccc(=O)c1O [Compound 349, 3-isopropenyl-tropolone]
- growth inhibition, in words ([2]; F4 and G01 strains): did not inhibit
- MIC80 ([2]; S. aureus F4 (Newman with ermB-inactivated cap5F gene)): 100 µM (≈ 16.2 µg/mL)
- MIC80 ([2]; S. aureus G01 (Newman with ermB-inactivated cap5G gene)): 100 µM (≈ 16.2 µg/mL)
- MIC80 ([2]; S. aureus Newman): 66.7 µM (≈ 10.8 µg/mL)
- growth inhibition, in words ([2]; wild-type Newman): slightly inhibited
- Kd (cupin domain of CapF): 27 ± 7 µM

SMILES: O=c1cccccc1Sc1cccccc1=O [Compound 684]
- MIC80 E. coli (ATCC35218) (E. coli (ATCC 35218) [1]): < 20 µM

SMILES: O=C(Sc1cccccc1=O)c1cccc(C(F)(F)F)c1 [Compound 678]
- MIC80 E. coli (ATCC35218) (E. coli (ATCC 35218) [1]): < 20 µM

SMILES: O=C(Cc1ccccc1)Sc1cccccc1=O [Compound 680]
- MIC80 E. coli (ATCC35218) (E. coli (ATCC 35218) [1]): < 30 µM and < 20 µM

SMILES: O=c1cccccc1S [Compound 363, thiotropolone]
- inhibition of S. aureus, in words (S. aureus (ATCC 29213); structure-activity discussion): only slightly decreased
- reduction of colony count (E. coli (ATCC 35218) [3]): ~3 log10
- MIC80 Cryptococcus neoformans (Cryptococcus neoformans): 0.25 µM (≈ 0.0345 µg/mL)
